Data set [1] concerns DOPAC levels (3,4-dihydroxyphenylacetic acid) in the rat striatum. The data set can be described thus: Tissue content of DOPAC in rat striatum after systemic administration of test compound (in vivo neurochemistry). Particulars: for change in vivo at 100 µmol/kg: sc, 1 h. As for the experimental part:
The measurement of the tissue content of DOPAC is well established in the field of research since the 1960's. In short, male Sprague-Dawely rats are administered the test compound 60 minutes prior to decapitation. The brain is rapidly taken out and dissected. The striatum is rapidly frozen and subsequently quantitatively analysed with respect to its content of DOPAC by means of HPLC and electrochemical detection. The number of animals used for each test compound/vehicle is 4/group.
Male Sprague-Dawley rats weighing 220-320 g are used throughout the experiments. Sixty (60) minutes following administration of the test substance, the rats are decapitated. Directly after decapitation the brain is removed from the skull and put on a glass petri bowl filled with ice. The limbic system (containing the nucleus accumbens—both the core and shell, most parts of the olfactory tubercle and ventral pallidum) is dissected using two thin, angled tweezers and put directly on foil on dry ice (carbon dioxide −78° C.). The striatum and cortex are then dissected and also put on dry ice. The time from decapitation until the last tissue is dissected varies from four to six minutes. The tissue is weighed using a Sartorius BP3105 connected to a computer and packed in labelled tin foil, then stored in an −80° C. freezer. Great care is taken in order to keep the tissue frozen until the time of neurochemical analysis. Each brain part is subsequently analyzed with respect to its content of monoamines and their metabolites.
The monoamine transmitter substances (NE (norepinephrine), DA (dopamine), 5-HT (serotonin)) as well as their amine (NM (normethanephrine), 3-MT (3-methoxy-tyramine)) and acid (DOPAC (3,4-dihydroxyphenylacetic acid), 5-HIAA (5-hydroxyindoleacetic acid), HVA (homovanillic acid)) metabolites are quantified in brain tissue homogenates by HPLC separations and electrochemical detection.
The analytical method is based on two chromatographic separations dedicated for amines or acids. Two chromatographic systems share a common auto injector with a 10-port valve and two sample loops for simultaneous injection on the two systems. Both systems are equipped with a reverse phase column (Luna C18(2), dp 3 μm, 50*2 mm i.d., Phenomenex) and electrochemical detection is accomplished at two potentials on glassy carbon electrodes (MF-1000, Bioanalytical Systems, Inc.). The column effluent is passed via a T-connection to the detection cell or to a waste outlet. This is accomplished by two solenoid valves, which block either the waste or detector outlet. By preventing the chromatographic front from reaching the detector, better detection conditions are achieved. The aqueous mobile phase (0.4 mL/min) for the acid system contains citric acid 14 mM, sodium citrate 10 mM, MeOH 15% (v/v) and EDTA 0.1 mM. Detection potentials relative to Ag/AgCl reference are 0.45 and 0.60V. The aqueous ion pairing mobile phase (0.5 mL/min) for the amine system contains citric acid 5 mM, sodium citrate 10 mM, MeOH 9% (v/v), MeCN 10.5% (v/v), decane sulfonic acid 0.45 mM, and EDTA 0.1 mM. Detection potentials relative to Ag/AgCl reference are 0.45 and 0.65V.

The test system is the same in data set [2]. Particulars: 100 μmol/kg s.c., %-increase from control value, data taken from Table 2 in Ref 1 (J. Med. Chem. 1994, 37, 2735); cited from earlier work.
Data set [3] concerns extracellular levels of dopamine, norepinephrine and serotonin in p.f. cortex and striatum. The data set can be described thus: In vivo microdialysis in awake and freely moving rats. Set-up: species or system rat. Particulars: 10 mg/kg s.c., FIG. 21.
[4] abbreviates: rat striatum, 100 μmol/kg s.c., %-increase from control value, 60 minutes after administration.
Setting [5] is: Rattus norvegicus, read-out: DOPAC %-increase, rat striatum, 100 μmol/kg s.c., %-increase from control value, 60 minutes after administration.

Consider 19 compounds from patent US8188301B2, “Disubstituted phenylpyrrolidines as modulators of cortical catecholaminergic neurotransmission” (NSAB, Filial af NeuroSearch Sweden AB, Sverige, priority 2007, dated 2012).

Molecules are shown by their SMILES. Counter-ions that a name gives are not always drawn. Like-named read-outs stand apart in the source and are kept apart here.

Take `CCN1CCC(O)(c2cc(F)cc(F)c2)C1` (single isomer, unassigned; (+)) [Example 2, (+)-3-(3,5-DIFLUOROPHENYL)-1-ETHYLPYRROLIDIN-3-OL]: the DOPAC %-increase in data set [1] (setting [4]) is given as −16%.
Consider `CCN1CCC(O)(c2cccc(F)c2F)C1` (single isomer, unassigned; (+)) [Example 36, (+)-3-(2,3-DIFLUOROPHENYL)-1-ETHYLPYRROLIDIN-3-OL], for which, in data set [1] (setting [4]), the DOPAC %-increase is listed as −15%.
Compound `COCCN1CCC(O)(c2cccc(F)c2F)C1` (single isomer, unassigned; (-)) (as salt: oxalic acid salt) [Example 42, (−)-3-(2,3-DIFLUOROPHENYL)-1-(2-METHOXYETHYL)PYRROLIDIN-3-OL] showed a melting point of 146.7 °C.
Same read-out and setting: next, `COCCN1CCC(O)(c2cc(F)cc(F)c2)C1` (single isomer, unassigned; (-)) (as salt: oxalic acid salt) [Example 45, (−)-3-(3,5-DIFLUOROPHENYL)-1-(2-METHOXYETHYL)PYRROLIDIN-3-OL]: 130 to 131 °C.
In turn, `OC1(c2cccc(F)c2F)CCN(CCC(F)(F)F)C1` (single isomer, unassigned; (-)) (as salt: oxalic acid salt) [Example 48, (−)-3-(2,3-DIFLUOROPHENYL)-1-(3,3,3-TRIFLUOROPROPYL)PYRROLIDIN-3-OL] came in with a melting point of 144 °C.
Regarding `CCN1CCC(O)(c2cc(F)cc(F)c2)C1` (single isomer, unassigned; (-)) [Example 1, (−)-3-(3,5-DIFLUOROPHENYL)-1-ETHYLPYRROLIDIN-3-OL], in data set [1] (setting [4]), the DOPAC %-increase was 0%.
Regarding `CCN1CCC(O)(c2cccc(F)c2F)C1` (single isomer, unassigned; (-)) [Example 32, (−)-3-(2,3-DIFLUOROPHENYL)-1-ETHYLPYRROLIDIN-3-OL], the DOPAC %-increase entry in data set [1] (setting [4]) is reported as “+8%”.
With `CCN1CCC(O)(c2ccc(F)c(Cl)c2)C1` (centres unmarked) [Example 3, 3-(3-CHLORO-4-FLUOROPHENYL)-1-ETHYLPYRROLIDIN-3-OL], the change in vivo at 100 µmol/kg in data set [1] (setting [5]) is -28%.
In the case of `CCN1CCC(O)(c2cccc(F)c2F)C1` (centres unmarked) [Example 4, 3-(2,3-DIFLUOROPHENYL)-1-ETHYLPYRROLIDIN-3-OL], in data set [1] (setting [4]), the DOPAC %-increase is −10%.
Take `CCN1CCC(O)(c2cc(F)cc(Cl)c2)C1` (centres unmarked) [Example 5, 3-(3-CHLORO-5-FLUOROPHENYL)-1-ETHYLPYRROLIDIN-3-OL]: the change in vivo at 100 µmol/kg in data set [1] (setting [5]) was -26%.
On to `CCN1CCC(O)(c2cc(Cl)cc(Cl)c2)C1` (centres unmarked) [Example 6, 3-(3,5-DICHLOROPHENYL)-1-ETHYLPYRROLIDIN-3-OL], for which, in data set [1] (setting [5]), the change in vivo at 100 µmol/kg was -10%.
Regarding `CCCN1CCC(O)(c2ccc(F)c(F)c2)C1` (centres unmarked) [Example 7, 3-(3,4-DIFLUOROPHENYL)-1-PROPYLPYRROLIDIN-3-OL], the change in vivo at 100 µmol/kg in data set [1] (setting [5]) amounted to 0%.
Consider `CCN1CCC(O)(c2cc(F)cc(F)c2)C1` (centres unmarked) [Example 8, 3-(3,5-DIFLUOROPHENYL)-1-ETHYLPYRROLIDIN-3-OL], for which the DOPAC %-increase in data set [1] (setting [4]) is on record as −24%.
In the case of `CCCN1CCC(O)(c2cc(F)cc(F)c2)C1` (centres unmarked) [Example 9, 3-(3,5-DIFLUOROPHENYL)-1-PROPYLPYRROLIDIN-3-OL], in data set [1] (setting [5]), the change in vivo at 100 µmol/kg is -5%.
On to `CCN1CCC(O)(c2ccc(Cl)c(Cl)c2)C1` (centres unmarked) [Example 10, 3-(3,4-DICHLOROPHENYL)-1-ETHYLPYRROLIDIN-3-OL], for which the change in vivo at 100 µmol/kg in data set [1] (setting [5]) is -26%.
`CN1CCC(F)(c2cc(F)cc(F)c2)C1` (centres unmarked) [Example 11, 3-(3,5-DIFLUOROPHENYL)-3-FLUORO-1-METHYLPYRROLIDINE]: the change in vivo at 100 µmol/kg in data set [1] (rat striatum, 100 μmol/kg s.c., %-increase from control value, 60 minutes after administration, read-out: DOPAC %-increase) is -4%.
Consider `CCN1CCC(O)(c2ccc(F)c(F)c2)C1` (centres unmarked) [Example 12, 3-(3,4-DIFLUOROPHENYL)-1-ETHYLPYRROLIDIN-3-OL], for which, in data set [1] (setting [5]), the change in vivo at 100 µmol/kg was -19%.
With `CCCN1CCC[C@@H](c2cccc(S(C)(=O)=O)c2)C1` [Example 16 of ref. 1], the DOPAC %-increase result in data set [2] is listed as “+150^2%”.
For the compound `CN1CCN2c3ncccc3Cc3ccccc3C2C1` (centres unmarked) [mirtazapine], in data set [3], the “cortical NE levels” value is on record as “marked increases in cortical NE levels”; the “extracellular norepinephrine and dopamine in the cortex” value was “increase predominantly extracellullar norepinephrine and dopamine in the cortex”.
